{"source": "patent US20250177448A1", "about": "“NEW USE OF PEG-PHOSPHOLIPID MOLECULES” (ICOAT MEDICAL AB, priority 2022, published 2025)", "key": {"[1]": {"test_system": "porcine kidney transplant, ischemia reperfusion injury", "experiment": "Porcine allogeneic survival transplantation model (SM)", "type": "in vivo, pig", "settings": "for IFNγ level / IL-1α level / IL-1β level / IL-2 level / IL-4 level / IL-6 level / IL-10 level / IL-12 level / IL-18 level: vs untreated control kidneys", "description": "During and after surgery, systemic blood was collected for up to 4 days and analyzed for creatinine, sodium, potassium and phosphate (Section for Clinical Chemistry, Uppsala University Hospital).\nMultiplex protein analyses using multiplex Luminex xMAP Technology (Millipore Corporation, Billerica, MA, USA) were performed using a porcine specific kit for 12 cytokines/chemokines: Interferon-gamma (INFγ), Interleukins IL-1b, IL-2, IL-1a, IL-1RA, IL-4, IL-6, IL-10, IL-18, IL-8, IL-12, and TNF. Plasma was incubated with agent-specific-coloured magnetic beads, thereafter with detection antibodies and streptavidin-phycoerythrin (Millipore Corporation). Plates were measured using a MAGPIX instrument (Luminex Corporation, Austin, TX, USA). Raw data [median fluorescence intensity (MFI)] was translated into protein concentration (ng/ml) using a standard curve.\nThese studies were approved by the Ethics Committee for Animal Experimentation, Uppsala, Sweden, Dnr C123/14. For each of these studies (SM and CLSM) five donor pigs and 10 recipient pigs of both sexes were used. All pigs were certified SPF pigs (Yorkshire×Hampshire) and bred at Lövsta University herd, SLU, Sweden. At arrival to SLU the pigs were 8 weeks old.\nFor the SM study, the pigs were selected after typing for Swine Leucocyte Antigen (SLA) class 1 in the following manner: the donor pigs were obtained from two litters and not related to any of the recipients. The recipient pigs were siblings, matched in pairs according to SLA class 1 (see below). For the CLSM study, all recipient pigs were siblings and not related to the donors, but these the pigs were not SLA-typed.\nSM study: the kidneys were retrieved en bloc using the same procedure as in the ANSM study. Also here, the kidneys were exposed to an initial warm ischemia of less than 5 minutes. […] Post preservation, the kidneys were randomized to receive either PEG-phospholipid (15 mL, 2 mg/mL) or HTK solution at +4° C. by injection through the renal artery after clamping of the renal vein. During a 40-60 min incubation, the renal artery and vein were maintained clamped. The SM study comprised 6 kidneys treated with PEG-phospholipid and 4 control kidneys.\nThe recipient pigs underwent allogeneic single kidney transplantation. Through a 15-20 cm abdominal midline incision, the iliac vessels in the right iliac fossa were identified and carefully mobilized. The distal segment of the vena cava as well as the iliac artery (from its emergence from the aorta) were mobilized, sealing the surrounding lymphoid tissue. The renal graft was thereafter placed in the right iliac fossa in the proximity of the iliac vessels. The renal vein and artery were trimmed, and subsequently anastomosed in an end-to-side fashion to the recipient's right iliac artery and distal vena cava using a polypropylene 7/0 running suture (PROLENE®, Ethicon, US). The ureters were implanted by extravesical ureteroneocystostomy to the top of the bladder by 6-0 polydioxanone suture (PDS®, Ethicon, US). Thereafter, bilateral nephrectomy of the native kidneys was performed. The midline incision was closed by running a 2/0 polyglactin (VICRYL®, Ethicon, US) fascia suture and skin clips. No anticoagulants were given to the recipient. After the inguinal transplantation was completed, urine was collected directly from the bladder by cystocentesis, showing that all of the transplanted kidneys had started to produce urine soon after reperfusion. By using a urine stick the sample was analyzed for proteinurea and hematuria. The mean duration of the surgery was 2.5 hours (1.75-3.25 hours).\nDuring and after transplantation, EDTA blood was collected from the local renal vein at 0, 15, 30 and 60 min after reperfusion, and systemic blood samples were obtained at 1, 2, 3, and 4 days after surgery. […]"}, "[2]": {"test_system": "mannan binding lectin (MBL)", "experiment": "Binding of lectin pathway recognition molecule to coated HUVEC after serum exposure, flow cytometry", "type": "cell-based, human", "settings": "0.5 mg/ml", "description": "Post analysis processing was carried out in FlowJo."}, "[3]": {"settings": "60 min following transplantation"}, "[4]": {"settings": "4 days following transplantation"}, "[5]": {"settings": "kidney vein, 5 min, in most cases"}, "[6]": {"settings": "up to 4 days post-transplantation"}}, "data": [{"substance": "N-(methylpolyoxyethylene oxycarbonyl)-1,2-dipalmitoyl-sn-glycero-3-phosphoethanolamine [PEG-phospholipid]", "values": [{"measurement": "binding of C3b in renal biopsies", "setting": "[1]; 5 min and necropsy day 4", "value": "lower binding"}, {"measurement": "IFNγ level", "setting": "[1]; [3]", "value": "not any significant difference"}, {"measurement": "IL-1α level", "setting": "[1]; [3]", "value": "not any significant difference"}, {"measurement": "IL-1β level", "setting": "[1]; [3]", "value": "not any significant difference"}, {"measurement": "IL-2 level", "setting": "[1]; [3]", "value": "not any significant difference"}, {"measurement": "IL-4 level", "setting": "[1]; [3]", "value": "not any significant difference"}, {"measurement": "IL-6 level", "setting": "[1]; [3]", "value": "not any significant difference"}, {"measurement": "IL-10 level", "setting": "[1]; [3]", "value": "not any significant difference"}, {"measurement": "IL-12 level", "setting": "[1]; [3]", "value": "not any significant difference"}, {"measurement": "IL-18 level", "setting": "[1]; [3]", "value": "not any significant difference"}, {"measurement": "IFNγ level", "setting": "[1]; [4]", "value": "significantly lower levels"}, {"measurement": "IL-1α level", "setting": "[1]; [4]", "value": "significantly lower levels"}, {"measurement": "IL-1β level", "setting": "[1]; [4]", "value": "significantly lower levels"}, {"measurement": "IL-2 level", "setting": "[1]; [4]", "value": "significantly lower levels"}, {"measurement": "IL-4 level", "setting": "[1]; [4]", "value": "significantly lower levels"}, {"measurement": "IL-6 level", "setting": "[1]; [4]", "value": "significantly lower levels"}, {"measurement": "IL-10 level", "setting": "[1]; [4]", "value": "significantly lower levels"}, {"measurement": "IL-12 level", "setting": "[1]; [4]", "value": "significantly lower levels"}, {"measurement": "IL-18 level", "setting": "[1]; [4]", "value": "significantly lower levels"}, {"measurement": "IL-1RA protein level", "setting": "[1]; after 96 hours", "value": "unaffected"}, {"measurement": "IL-8 protein level", "setting": "[1]; after 96 hours", "value": "unaffected"}, {"measurement": "IL-1a protein level", "setting": "[1]; [5]", "value": "suppressed"}, {"measurement": "IL-12 protein level", "setting": "[1]; [5]", "value": "suppressed"}, {"measurement": "creatinine levels post-transplantation", "setting": "[1]; recipients' blood, 24-96 hours, vs control grafts", "value": "significantly lower"}, {"measurement": "C3a in blood samples", "setting": "[1]; [6]", "value": "substantially lower"}, {"measurement": "TAT in blood samples", "setting": "[1]; [6]", "value": "substantially lower"}, {"measurement": "sC5b-9 in blood samples", "setting": "[1]; [6]", "value": "substantially lower"}, {"measurement": "decrease of MBL binding from human serum", "setting": "[2]", "value": "25-30%"}]}]}
